The values below come from paper PMC6704710, “Preclinical evaluation of 3D185, a novel potent inhibitor of FGFR1/2/3 and CSF-1R, in FGFR-dependent and macrophage-dominant cancer models” (Journal of Experimental & Clinical Cancer Research : CR, 2019).

Holding throughout (assay): Eurofins kinase panel
Format in all cases: biochemical
Holding throughout (conditions): read-out: Inhibition rate (%)

For one assay, the target named is T1, MYO3B(h) (Homo sapiens, UniProt Q8WXR4).
T1 construct: purchased Eurofins (KinaseProfiler)
T1 sequence (Q8WXR4 1-1341): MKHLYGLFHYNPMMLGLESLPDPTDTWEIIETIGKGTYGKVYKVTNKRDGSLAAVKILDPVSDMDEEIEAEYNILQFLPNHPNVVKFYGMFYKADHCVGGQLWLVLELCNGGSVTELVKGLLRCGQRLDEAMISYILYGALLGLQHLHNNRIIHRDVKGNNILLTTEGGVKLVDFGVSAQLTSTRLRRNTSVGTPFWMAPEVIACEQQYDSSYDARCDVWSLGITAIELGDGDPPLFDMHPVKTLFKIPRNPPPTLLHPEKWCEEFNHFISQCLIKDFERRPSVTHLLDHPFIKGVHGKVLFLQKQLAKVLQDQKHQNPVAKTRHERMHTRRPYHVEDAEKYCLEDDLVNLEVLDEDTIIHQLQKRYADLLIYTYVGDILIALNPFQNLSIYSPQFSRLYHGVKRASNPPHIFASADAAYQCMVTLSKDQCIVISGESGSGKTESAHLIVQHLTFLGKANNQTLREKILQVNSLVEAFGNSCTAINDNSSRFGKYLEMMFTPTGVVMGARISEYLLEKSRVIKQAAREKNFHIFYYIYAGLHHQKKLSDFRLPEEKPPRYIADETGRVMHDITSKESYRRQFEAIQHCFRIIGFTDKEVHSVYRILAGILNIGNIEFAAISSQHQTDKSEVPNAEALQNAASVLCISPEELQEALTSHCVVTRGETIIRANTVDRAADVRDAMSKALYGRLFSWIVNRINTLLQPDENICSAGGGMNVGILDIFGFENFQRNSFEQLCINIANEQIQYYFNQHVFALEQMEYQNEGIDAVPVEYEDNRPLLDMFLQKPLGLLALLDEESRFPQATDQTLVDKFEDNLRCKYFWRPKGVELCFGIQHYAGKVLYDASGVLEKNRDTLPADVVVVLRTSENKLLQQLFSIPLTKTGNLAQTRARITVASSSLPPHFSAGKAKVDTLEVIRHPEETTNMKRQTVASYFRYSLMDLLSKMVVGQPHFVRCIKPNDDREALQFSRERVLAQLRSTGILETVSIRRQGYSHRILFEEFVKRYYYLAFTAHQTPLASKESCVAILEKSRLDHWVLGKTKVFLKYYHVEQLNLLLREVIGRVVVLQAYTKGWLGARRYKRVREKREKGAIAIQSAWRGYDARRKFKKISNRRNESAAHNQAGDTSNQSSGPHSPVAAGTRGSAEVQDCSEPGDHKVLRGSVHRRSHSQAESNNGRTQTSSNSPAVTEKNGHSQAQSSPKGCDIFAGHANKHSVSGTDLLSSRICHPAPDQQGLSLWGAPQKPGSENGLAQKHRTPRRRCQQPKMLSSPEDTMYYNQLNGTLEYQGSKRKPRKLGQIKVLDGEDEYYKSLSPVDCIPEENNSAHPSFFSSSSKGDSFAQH

The next assay deals with T2, MAPK2(h) (Homo sapiens, UniProt P28482).
T2 construct: purchased Eurofins (KinaseProfiler)
T2 sequence (P28482 whole entry): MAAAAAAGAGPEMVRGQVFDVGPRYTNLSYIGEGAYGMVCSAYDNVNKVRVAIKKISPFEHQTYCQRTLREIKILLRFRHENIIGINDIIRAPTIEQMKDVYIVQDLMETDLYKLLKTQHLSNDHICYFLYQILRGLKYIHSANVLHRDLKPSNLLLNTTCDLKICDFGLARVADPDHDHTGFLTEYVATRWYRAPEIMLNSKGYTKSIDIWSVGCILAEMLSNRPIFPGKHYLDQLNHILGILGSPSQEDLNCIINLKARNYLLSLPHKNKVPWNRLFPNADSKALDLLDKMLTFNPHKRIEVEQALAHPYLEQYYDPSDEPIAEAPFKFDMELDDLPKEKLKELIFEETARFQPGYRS

A further assay addresses T3, EphB1(h) (Homo sapiens, UniProt P54762).
T3 construct: purchased Eurofins (KinaseProfiler)
T3 sequence (P54762 18-984): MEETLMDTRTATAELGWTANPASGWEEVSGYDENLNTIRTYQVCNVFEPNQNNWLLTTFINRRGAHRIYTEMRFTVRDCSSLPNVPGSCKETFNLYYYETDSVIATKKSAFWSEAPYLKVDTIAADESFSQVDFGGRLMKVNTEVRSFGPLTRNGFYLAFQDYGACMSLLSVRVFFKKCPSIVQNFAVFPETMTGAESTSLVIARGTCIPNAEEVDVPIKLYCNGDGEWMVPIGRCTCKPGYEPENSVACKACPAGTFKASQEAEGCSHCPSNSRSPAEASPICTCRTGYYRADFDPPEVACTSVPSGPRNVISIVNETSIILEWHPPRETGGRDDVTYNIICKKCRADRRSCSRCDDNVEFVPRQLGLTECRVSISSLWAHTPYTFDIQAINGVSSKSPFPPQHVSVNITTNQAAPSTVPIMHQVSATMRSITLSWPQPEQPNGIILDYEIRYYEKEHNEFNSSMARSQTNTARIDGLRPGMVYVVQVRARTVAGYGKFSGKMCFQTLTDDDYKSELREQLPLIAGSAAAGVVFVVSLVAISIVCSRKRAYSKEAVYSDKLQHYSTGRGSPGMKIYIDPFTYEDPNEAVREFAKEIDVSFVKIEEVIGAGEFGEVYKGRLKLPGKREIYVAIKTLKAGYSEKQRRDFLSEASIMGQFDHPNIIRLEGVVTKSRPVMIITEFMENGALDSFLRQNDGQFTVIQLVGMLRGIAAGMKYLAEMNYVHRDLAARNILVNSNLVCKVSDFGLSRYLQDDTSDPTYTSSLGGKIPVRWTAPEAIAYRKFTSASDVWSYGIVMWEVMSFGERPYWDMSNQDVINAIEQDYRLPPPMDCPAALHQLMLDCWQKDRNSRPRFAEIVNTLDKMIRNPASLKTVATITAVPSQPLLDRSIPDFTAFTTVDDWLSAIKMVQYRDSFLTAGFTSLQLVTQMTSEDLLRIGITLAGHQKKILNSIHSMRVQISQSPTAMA

For another assay, the target named is T4, MSK2(h) (Homo sapiens, UniProt O75676).
T4 construct: purchased Eurofins (KinaseProfiler)
T4 sequence (O75676 whole entry): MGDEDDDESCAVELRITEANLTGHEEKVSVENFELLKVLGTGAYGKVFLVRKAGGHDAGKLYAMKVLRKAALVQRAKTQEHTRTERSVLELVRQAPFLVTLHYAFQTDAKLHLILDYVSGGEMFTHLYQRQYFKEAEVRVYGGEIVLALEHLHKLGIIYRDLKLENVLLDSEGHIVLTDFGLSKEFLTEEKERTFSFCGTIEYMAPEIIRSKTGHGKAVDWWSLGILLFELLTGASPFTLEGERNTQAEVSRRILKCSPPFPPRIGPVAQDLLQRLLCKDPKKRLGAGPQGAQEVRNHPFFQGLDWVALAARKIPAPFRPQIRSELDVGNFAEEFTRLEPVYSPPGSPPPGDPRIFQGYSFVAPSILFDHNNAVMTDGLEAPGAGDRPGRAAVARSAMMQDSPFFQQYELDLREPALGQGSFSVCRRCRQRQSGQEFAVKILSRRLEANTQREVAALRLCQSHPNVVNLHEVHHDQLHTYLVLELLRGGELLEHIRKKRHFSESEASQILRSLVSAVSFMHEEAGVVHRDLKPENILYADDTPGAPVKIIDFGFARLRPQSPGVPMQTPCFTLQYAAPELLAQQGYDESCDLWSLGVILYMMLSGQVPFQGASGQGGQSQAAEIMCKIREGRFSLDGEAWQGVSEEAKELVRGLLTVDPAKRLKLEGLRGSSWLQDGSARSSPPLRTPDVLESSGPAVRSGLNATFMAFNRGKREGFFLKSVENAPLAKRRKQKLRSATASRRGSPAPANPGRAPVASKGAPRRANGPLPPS

The target in a further assay is T5, TrkB(h) (Homo sapiens, UniProt Q16620).
T5 construct: purchased Eurofins (KinaseProfiler)
T5 sequence (Q16620 32-822): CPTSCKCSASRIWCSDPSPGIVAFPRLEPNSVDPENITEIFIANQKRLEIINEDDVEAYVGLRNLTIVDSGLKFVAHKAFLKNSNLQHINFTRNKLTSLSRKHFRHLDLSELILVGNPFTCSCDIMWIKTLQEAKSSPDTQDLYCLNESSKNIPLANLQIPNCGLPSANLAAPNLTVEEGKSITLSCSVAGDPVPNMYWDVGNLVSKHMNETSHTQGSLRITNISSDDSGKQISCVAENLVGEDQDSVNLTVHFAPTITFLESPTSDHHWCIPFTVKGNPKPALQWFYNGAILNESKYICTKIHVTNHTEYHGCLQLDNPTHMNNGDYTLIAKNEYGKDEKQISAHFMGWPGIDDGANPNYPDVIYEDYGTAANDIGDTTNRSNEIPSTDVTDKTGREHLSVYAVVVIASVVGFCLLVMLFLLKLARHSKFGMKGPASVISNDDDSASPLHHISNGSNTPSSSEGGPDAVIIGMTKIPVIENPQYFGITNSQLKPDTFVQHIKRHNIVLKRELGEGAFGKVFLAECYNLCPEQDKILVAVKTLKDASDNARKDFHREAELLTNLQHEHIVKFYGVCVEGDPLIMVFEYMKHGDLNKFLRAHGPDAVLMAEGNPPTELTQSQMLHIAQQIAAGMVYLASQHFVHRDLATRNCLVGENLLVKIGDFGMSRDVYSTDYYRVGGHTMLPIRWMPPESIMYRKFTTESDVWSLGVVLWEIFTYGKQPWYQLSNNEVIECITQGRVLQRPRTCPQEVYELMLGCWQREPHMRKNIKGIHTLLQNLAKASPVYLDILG

Broadly, the inhibition is the change of the read-out against control, counted positive when it falls. Turning to `COc1cc(OC)c(Cl)c(-c2ccc3c(NC(=O)c4ccc(N5CCNC(C)(C)C5)cc4)n[nH]c3n2)c1Cl` [3D185], the inhibition at 0.01 µM on MYO3B(h) (10 nM) was -4%; at MAPK2(h) (10 nM), -5%; on EphB1(h) (10 nM), -9%; at MSK2(h) (10 nM), 10%; at TrkB(h) (10 nM), 31%. Besides, the inhibition at 0.1 µM is 0% at MYO3B(h) (100 nM); -3% on MAPK2(h) (100 nM); 1% on EphB1(h) (100 nM); 25% at MSK2(h) (100 nM); 87% on TrkB(h) (100 nM). Further, the inhibition at 1 µM at MYO3B(h) (1000 nM) amounted to 7%; at MAPK2(h) (1000 nM) it was 3%; at EphB1(h) (1000 nM), 36%; on MSK2(h) (1000 nM), 49%; on TrkB(h) (1000 nM) it was 97%.
